According to PubChem BioAssay AID2060513 (Molecular Pharmacology Branch, DTP, NCI, 2025):

Tested on: 299254-011-R-J1-PDC complex spheroids viability
Test: Anticancer human tumor 299254-011-R-J1-PDC patient-derived melanoma cell line growth inhibition [GQUAD]
Conditions: for IC50: curve of first compound; for viability, T/C: stronger effect = lower value
Method in brief: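 Viability of tumor cells grown as complex spheroids with endothelial and stromal cells, exposed to drug combinations. Top concentration at or near clinical Cmax (else 10 microM), diluted in half-log increments.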

[1] = second compound 0.0316 µM, first compound 0.0316 µM
[2] = second compound 0.0316 µM, first compound 0.316 µM
[3] = second compound 0.1 µM, first compound 0.0316 µM
[4] = second compound 0.1 µM, first compound 0.316 µM
[5] = second compound 0.316 µM, first compound 0.0316 µM
[6] = second compound 0.316 µM, first compound 0.316 µM
[7] = second compound 1 µM, first compound 0.0316 µM
[8] = second compound 1 µM, first compound 0.316 µM
[9] = second compound 3.16 µM, first compound 0.0316 µM
[10] = second compound 3.16 µM, first compound 0.316 µM
[11] = second compound 10 µM, first compound 0.0316 µM
[12] = second compound 10 µM, first compound 0.316 µM
[13] = second compound 0.0316 µM, first compound 0.1 µM
[14] = second compound 0.0316 µM, first compound 1 µM
[15] = second compound 0.0316 µM, first compound 3.16 µM
[16] = second compound 0.0316 µM, first compound 10 µM
[17] = second compound 0.1 µM, first compound 0.1 µM
[18] = second compound 0.1 µM, first compound 1 µM
[19] = second compound 0.1 µM, first compound 3.16 µM
[20] = second compound 0.1 µM, first compound 10 µM
[21] = second compound 0.316 µM, first compound 0.1 µM
[22] = second compound 0.316 µM, first compound 1 µM
[23] = second compound 0.316 µM, first compound 3.16 µM
[24] = second compound 0.316 µM, first compound 10 µM
[25] = second compound 1 µM, first compound 0.1 µM
[26] = second compound 1 µM, first compound 1 µM
[27] = second compound 1 µM, first compound 3.16 µM
[28] = second compound 1 µM, first compound 10 µM
[29] = second compound 3.16 µM, first compound 0.1 µM
[30] = second compound 3.16 µM, first compound 1 µM
[31] = second compound 3.16 µM, first compound 3.16 µM
[32] = second compound 3.16 µM, first compound 10 µM
[33] = second compound 10 µM, first compound 0.1 µM
[34] = second compound 10 µM, first compound 1 µM
[35] = second compound 10 µM, first compound 3.16 µM
[36] = second compound 10 µM, first compound 10 µM
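Further: spheroids exposed to the agents for seven days before readout.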
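Wherever viability, T/C is given: percent viability relative to DMSO vehicle control wells = 100%.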

## Cn1ncnc1[C@H]1c2n[nH]c(=O)c3cc(F)cc(c23)N[C@@H]1c1ccc(F)cc1 + Cc1[nH]c2ccc(F)cc2c1-c1nc2c3cccnc3c3ncccc3c2[nH]1
Second compound 0.0316 µM
  IC50: > 0.316 µM
Second compound 0.1 µM
  IC50: > 0.316 µM
Second compound 0.316 µM
  IC50: > 0.316 µM
Second compound 1 µM
  IC50: > 0.316 µM
Second compound 3.16 µM
  IC50: > 0.316 µM
Second compound 10 µM
  IC50: > 0.316 µM
Second compound 0.0316 µM, first compound 0.000999 µM
  viability, T/C: 93.7%
Second compound 0.0316 µM, first compound 0.00316 µM
  viability, T/C: 105%
Second compound 0.0316 µM, first compound 0.00999 µM
  viability, T/C: 117%
[1]
  viability, T/C: 90.2%
Second compound 0.0316 µM, first compound 0.0999 µM
  viability, T/C: 88.3%
[2]
  viability, T/C: 101%
Second compound 0.1 µM, first compound 0.000999 µM
  viability, T/C: 101%
Second compound 0.1 µM, first compound 0.00316 µM
  viability, T/C: 103%
Second compound 0.1 µM, first compound 0.00999 µM
  viability, T/C: 88.1%
[3]
  viability, T/C: 92.7%
Second compound 0.1 µM, first compound 0.0999 µM
  viability, T/C: 118%
[4]
  viability, T/C: 96.2%
Second compound 0.316 µM, first compound 0.000999 µM
  viability, T/C: 92.8%
Second compound 0.316 µM, first compound 0.00316 µM
  viability, T/C: 108%
Second compound 0.316 µM, first compound 0.00999 µM
  viability, T/C: 113%
[5]
  viability, T/C: 94%
Second compound 0.316 µM, first compound 0.0999 µM
  viability, T/C: 98.2%
[6]
  viability, T/C: 105%
Second compound 1 µM, first compound 0.000999 µM
  viability, T/C: 86.7%
Second compound 1 µM, first compound 0.00316 µM
  viability, T/C: 105%
Second compound 1 µM, first compound 0.00999 µM
  viability, T/C: 87.1%
[7]
  viability, T/C: 112%
Second compound 1 µM, first compound 0.0999 µM
  viability, T/C: 112%
[8]
  viability, T/C: 102%
Second compound 3.16 µM, first compound 0.000999 µM
  viability, T/C: 95.3%
Second compound 3.16 µM, first compound 0.00316 µM
  viability, T/C: 88.2%
Second compound 3.16 µM, first compound 0.00999 µM
  viability, T/C: 96.3%
[9]
  viability, T/C: 84.6%
Second compound 3.16 µM, first compound 0.0999 µM
  viability, T/C: 88.6%
[10]
  viability, T/C: 118%
Second compound 10 µM, first compound 0.000999 µM
  viability, T/C: 96.7%
Second compound 10 µM, first compound 0.00316 µM
  viability, T/C: 111%
Second compound 10 µM, first compound 0.00999 µM
  viability, T/C: 84%
[11]
  viability, T/C: 95.7%
Second compound 10 µM, first compound 0.0999 µM
  viability, T/C: 108%
[12]
  viability, T/C: 99.5%

## Nc1ccn(C2OC(CO)C(O)C2(F)F)c(=O)n1 (stereo not drawn) + Cc1[nH]c2ccc(F)cc2c1-c1nc2c3cccnc3c3ncccc3c2[nH]1
Second compound 0.0316 µM
  IC50: > 10 µM
Second compound 0.1 µM
  IC50: 6.46 µM
Second compound 0.316 µM
  IC50: > 10 µM
Second compound 1 µM
  IC50: > 10 µM
Second compound 3.16 µM
  IC50: > 10 µM
Second compound 10 µM
  IC50: > 10 µM
[1]
  viability, T/C: 112%
[13]
  viability, T/C: 78.3%
[2]
  viability, T/C: 77.8%
[14]
  viability, T/C: 74.3%
[15]
  viability, T/C: 68.1%
[16]
  viability, T/C: 54.6%
[3]
  viability, T/C: 128%
[17]
  viability, T/C: 94.5%
[4]
  viability, T/C: 63.7%
[18]
  viability, T/C: 64.5%
[19]
  viability, T/C: 56.5%
[20]
  viability, T/C: 59.6%
[5]
  viability, T/C: 116%
[21]
  viability, T/C: 99.5%
[6]
  viability, T/C: 59.8%
[22]
  viability, T/C: 70.5%
[23]
  viability, T/C: 47.8%
[24]
  viability, T/C: 66.9%
[7]
  viability, T/C: 117%
[25]
  viability, T/C: 112%
[8]
  viability, T/C: 72.4%
[26]
  viability, T/C: 49%
[27]
  viability, T/C: 60.6%
[28]
  viability, T/C: 74%
[9]
  viability, T/C: 96.4%
[29]
  viability, T/C: 97%
[10]
  viability, T/C: 70.8%
[30]
  viability, T/C: 58.1%
[31]
  viability, T/C: 55.4%
[32]
  viability, T/C: 52.2%
[11]
  viability, T/C: 102%
[33]
  viability, T/C: 103%
[12]
  viability, T/C: 62.9%
[34]
  viability, T/C: 45.6%
[35]
  viability, T/C: 59%
[36]
  viability, T/C: 49%

## C=CC(=O)N1CCN(c2nc(=O)n(-c3c(C)ccnc3C(C)C)c3nc(-c4c(O)cccc4F)c(F)cc23)C(C)C1 (stereo not drawn) + Cc1[nH]c2ccc(F)cc2c1-c1nc2c3cccnc3c3ncccc3c2[nH]1
Second compound 0.0316 µM
  IC50: > 10 µM
Second compound 0.1 µM
  IC50: > 10 µM
Second compound 0.316 µM
  IC50: > 10 µM
Second compound 1 µM
  IC50: > 10 µM
Second compound 3.16 µM
  IC50: > 10 µM
Second compound 10 µM
  IC50: > 10 µM
[1]
  viability, T/C: 85%
[13]
  viability, T/C: 63.2%
[2]
  viability, T/C: 62%
[14]
  viability, T/C: 56%
[15]
  viability, T/C: 67.1%
[16]
  viability, T/C: 75.7%
[3]
  viability, T/C: 72.9%
[17]
  viability, T/C: 85%
[4]
  viability, T/C: 60.5%
[18]
  viability, T/C: 56.7%
[19]
  viability, T/C: 66.2%
[20]
  viability, T/C: 78.3%
[5]
  viability, T/C: 67.3%
[21]
  viability, T/C: 80.1%
[6]
  viability, T/C: 63.1%
[22]
  viability, T/C: 64.6%
[23]
  viability, T/C: 74.2%
[24]
  viability, T/C: 69.9%
[7]
  viability, T/C: 67.8%
[25]
  viability, T/C: 69.4%
[8]
  viability, T/C: 66.2%
[26]
  viability, T/C: 79.8%
[27]
  viability, T/C: 63.7%
[28]
  viability, T/C: 86.8%
[9]
  viability, T/C: 73%
[29]
  viability, T/C: 81.1%
[10]
  viability, T/C: 73.8%
[30]
  viability, T/C: 78.4%
[31]
  viability, T/C: 74.7%
[32]
  viability, T/C: 69.9%
[11]
  viability, T/C: 74.4%
[33]
  viability, T/C: 71.5%
[12]
  viability, T/C: 72.5%
[34]
  viability, T/C: 67.1%
[35]
  viability, T/C: 77.6%
[36]
  viability, T/C: 59.4%

## CC(C)n1c(=O)n(C)c2cnc3cc(F)c(-c4ccc(OCCCN5CCCCC5)nc4)cc3c21 + CN(C)c1ccc(Nc2c3ccc(NC(=O)CCN4CCCC4)cc3nc3cc(NC(=O)CCN4CCCC4)ccc23)cc1
Second compound 0.0316 µM
  IC50: 9.23 µM
Second compound 0.1 µM
  IC50: 8.05 µM
Second compound 0.316 µM
  IC50: 8.13 µM
Second compound 1 µM
  IC50: 7.22 µM
Second compound 3.16 µM
  IC50: 5.7 µM
Second compound 10 µM
  IC50: 2.13 µM
[1]
  viability, T/C: 102%
[13]
  viability, T/C: 108%
[2]
  viability, T/C: 91.2%
[14]
  viability, T/C: 76.3%
[15]
  viability, T/C: 94%
[16]
  viability, T/C: 46.7%
[3]
  viability, T/C: 93.4%
[17]
  viability, T/C: 79.6%
[4]
  viability, T/C: 106%
[18]
  viability, T/C: 80.7%
[19]
  viability, T/C: 81.3%
[20]
  viability, T/C: 42.7%
[5]
  viability, T/C: 86.4%
[21]
  viability, T/C: 102%
[6]
  viability, T/C: 87%
[22]
  viability, T/C: 93.2%
[23]
  viability, T/C: 85.7%
[24]
  viability, T/C: 42.1%
[7]
  viability, T/C: 91.6%
[25]
  viability, T/C: 87.1%
[8]
  viability, T/C: 79.4%
[26]
  viability, T/C: 77.6%
[27]
  viability, T/C: 85.9%
[28]
  viability, T/C: 36.5%
[9]
  viability, T/C: 93.9%
[29]
  viability, T/C: 81.8%
[10]
  viability, T/C: 86.2%
[30]
  viability, T/C: 77.2%
[31]
  viability, T/C: 61.9%
[32]
  viability, T/C: 38.1%
[11]
  viability, T/C: 83.2%
[33]
  viability, T/C: 79.9%
[12]
  viability, T/C: 77%
[34]
  viability, T/C: 64.5%
[35]
  viability, T/C: 42.4%
[36]
  viability, T/C: 28.9%
